What follows are molecules tested on symmetric dimethylation of arginine (SDMA) of PRMT5 substrates in MCF-7 cells (assay: PRMT5 Cell Target Engagement (TE) Assay). Details: Homo sapiens, MCF7, 72 h; MCF-7 cells treated for 3 days; nuclear SDMA by high content imaging; top concentration 10000 nM.
Type: cell-based
Summary of the method: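 MCF-7 cells treated 3 days at 37 °C with 10-point 1:3 titration from 10000 nM top. Fixed cells stained with anti-SDMA antibody plus Alexa488 secondary and Hoechst; nuclear fluorescence quantified by high-content imaging versus DMSO wells. EC50 from 4-parameter fit of percent fluorescence vs log concentration.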

Row | Compound | EC50 [nM]
1 | Nc1nc2cc(O[C@H]3CC[C@@]4(O)[C@@H]3O[C@@H](n3ccc5c(CO)ncnc53)[C@@H]4O)ccc2cc1Br [Example 77, (2R,3R,3aS,6S,6aR)-6-[(2-amino-3-bromoquinolin-7-yl)oxy]-2-[4-(hydroxymethyl)-7H-pyrrolo[2,3-d]pyrimidin-7-yl]hexahydro-3aH-cyclopenta[b]furan-3,3a-diol] | 186
2 | Cc1ncnc2c1ccn2[C@@H]1O[C@@H]2[C@H](Cc3ccc4cc(C(F)F)c(N)nc4c3)CC[C@]2(O)[C@H]1O [Example 23, (2R,3R,3aS,6S,6aR)-6-((2-amino-3-(difluoromethyl)quinolin-7-yl)methyl)-2-(4-methyl-7H-pyrrolo[2,3-d]pyrimidin-7-yl)hexahydro-3aH-cyclopenta[b]furan-3,3a-diol] | 1.5
3 | C[C@]1(COc2ccc3cccnc3c2)O[C@@H](n2ccc3c(N)ncnc32)[C@H](O)[C@@H]1O [Example 98, (2R,3S,4R,5R)-5-(4-amino-7H-pyrrolo[2,3-d]pyrimidin-7-yl)-2-methyl-2-((quinolin-7-yloxy)methyl)tetrahydrofuran-3,4-diol] | 272
4 | C[C@]1(CCc2ccc3cc(Br)c(N)nc3c2)C[C@@H](n2ccc3c(N)ncnc32)[C@H](O)[C@]1(C)O [Example 117, (1R,2S,3R,5S)-5-(2-(2-amino-3-bromoquinolin-7-yl)ethyl)-3-(4-amino-7H-pyrrolo[2,3-d]pyrimidin-7-yl)-1,5-dimethylcyclopentane-1,2-diol] | 8.5
5 | Nc1nc2cc(C[C@H]3[C@H]4O[C@@H](n5ccc6c(N)ncnc65)[C@H](O)[C@@]4(O)C[C@@H]3F)ccc2cc1F [Example 54, (2R,3R,3aS,5S,6S,6aR)-6-[(2-amino-3-fluoroquinolin-7-yl)methyl]-2-(4-amino-7H-pyrrolo[2,3-d]pyrimidin-7-yl)-5-fluorohexahydro-3aH-cyclopenta[b]furan-3,3a-diol] | 8.1
6 | Cc1ncnc2c1ccn2[C@@H]1O[C@@H]2[C@H](Cc3ccc4cc(F)c(N)nc4c3)CC[C@]2(O)[C@H]1O [Example 123, (2R,3R,3aS,6S,6aR)-6-((2-amino-3-fluoroquinolin-7-yl)methyl)-2-(4-methyl-7H-pyrrolo[2,3-d]pyrimidin-7-yl)hexahydro-3aH-cyclopenta[b]furan-3,3a-diol] | 13.1
7 | C[C@]12O[C@@H](n3ccc4c(N)ncnc43)[C@H](O)[C@@]1(O)CC[C@H]2Cc1ccc2cc(F)c(N)nc2c1 [Example 121, (2R,3R,3aS,6S,6aR)-6-((2-amino-3-fluoroquinolin-7-yl)methyl)-2-(4-amino-7H-pyrrolo[2,3-d]pyrimidin-7-yl)-6a-methylhexahydro-3aH-cyclopenta[b]furan-3,3a-diol] | 1
8 | C[C@]1(CCc2ccc3cc(Br)c(N)nc3c2)O[C@@H](n2ccc3c(N)ncnc32)[C@H](O)[C@]1(C)O [Example 4, (2R,3S,4R,5R)-2-(2-(2-amino-3-bromoquinolin-7-yl)ethyl)-5-(4-amino-7H-pyrrolo[2,3-d]pyrimidin-7-yl)-2,3-dimethyltetrahydrofuran-3,4-diol] | 186
9 | Nc1nc2cc(O[C@H]3CC[C@@]4(O)[C@@H]3O[C@@H](n3cc(F)c5c(N)ncnc53)[C@@H]4O)ccc2cc1Br [Example 56, (2R,3R,3aS,6S,6aR)-6-((2-amino-3-bromoquinolin-7-yl)oxy)-2-(4-amino-5-fluoro-7H-pyrrolo[2,3-d]pyrimidin-7-yl)hexahydro-3aH-cyclopenta[b]furan-3,3a-diol] | 1.2
10 | Cc1ncnc2c1c(F)cn2[C@@H]1O[C@@H]2[C@H](Cc3ccc4cc(Br)c(N)nc4c3)CC[C@]2(O)[C@H]1O [Example 84, (2R,3R,3aS,6S,6aR)-6-((2-amino-3-bromoquinolin-7-yl)methyl)-2-(5-fluoro-4-methyl-7H-pyrrolo[2,3-d]pyrimidin-7-yl)hexahydro-3aH-cyclopenta[b]furan-3,3a-diol] | 7.5
11 | Nc1nc2cc(O[C@H]3CC[C@@]4(O)[C@@H]3O[C@@H](n3cc(F)c5c(N)ncnc53)[C@@H]4O)ccc2cc1F [Example 73, (2R,3R,3aS,6S,6aR)-6-((2-amino-3-fluoroquinolin-7-yl)oxy)-2-(4-amino-5-fluoro-7H-pyrrolo[2,3-d]pyrimidin-7-yl)hexahydro-3aH-cyclopenta[b]furan-3,3a-diol] | 2
12 | Cc1cc2ccc(C[C@@H]3CC[C@@]4(O)[C@@H]3O[C@@H](n3ccc5c(N)ncnc53)[C@@H]4O)cc2nc1N [Example 125, (2R,3R,3aS,6S,6aR)-6-((2-amino-3-methylquinolin-7-yl)methyl)-2-(4-amino-7H-pyrrolo[2,3-d]pyrimidin-7-yl)hexahydro-3aH-cyclopenta[b]furan-3,3a-diol] | 0.7
13 | Cc1cn([C@@H]2C[C@@H]3[C@H](Cc4ccc5cc(Cl)c(N)nc5c4)CC[C@]3(O)[C@H]2O)c2ncnc(N)c12 [Example 39, (1S,2R,3aR,4S,6aR)-4-((2-amino-3-chloroquinolin-7-yl)methyl)-2-(4-amino-5-methyl-7H-pyrrolo[2,3-d]pyrimidin-7-yl)hexahydropentalene-1,6a(1H)-diol] | 0.3
14 | C[C@]1(O)[C@@H](O)[C@H](n2ccc3c(N)ncnc32)C[C@]1(O)CCc1ccc2cc(Br)c(N)nc2c1 [Example 118, (1R,2S,3S,4R)-1-(2-(2-amino-3-bromoquinolin-7-yl)ethyl)-4-(4-amino-7H-pyrrolo[2,3-d]pyrimidin-7-yl)-2-methylcyclopentane-1,2,3-triol] | 103
15 | Nc1nc2cc(C[C@@H]3CC[C@@]4(O)[C@@H]3C[C@@H](n3cc(F)c5c(N)ncnc53)[C@@H]4O)ccc2cc1Br [Example 42, (1S,2R,3aR,4S,6aR)-4-((2-amino-3-bromoquinolin-7-yl)methyl)-2-(4-amino-5-fluoro-7H-pyrrolo[2,3-d]pyrimidin-7-yl)hexahydropentalene-1,6a(1H)-diol] | 0.3
16 | C[C@]1(COc2ccc3cc(Br)c(N)nc3c2)C[C@@H](n2ccc3c(N)ncnc32)[C@H](O)[C@]1(C)O [Example 111, (1R,2S,3R,5R)-5-(((2-amino-3-bromoquinolin-7-yl)oxy)methyl)-3-(4-amino-7H-pyrrolo[2,3-d]pyrimidin-7-yl)-1,5-dimethylcyclopentane-1,2-diol] | 2330
17 | Nc1nc2cc(O[C@H]3CC[C@@]4(O)[C@@H]3O[C@@H](n3cc(C5CC5)c5c(N)ncnc53)[C@@H]4O)ccc2cc1Br [Example 52, (2R,3R,3aS,6S,6aR)-6-[(2-amino-3-bromoquinolin-7-yl)oxy]-2-(4-amino-5-cyclopropyl-7H-pyrrolo[2,3-d]pyrimidin-7-yl)hexahydro-3aH-cyclopenta[b]furan-3,3a-diol] | 75.5
18 | Nc1nc2cc(C[C@@H]3CC[C@@]4(O)[C@@H]3O[C@@H](n3cc(F)c5c(N)ncnc53)[C@@H]4O)ccc2cc1Cl [Example 68, (2R,3R,3aS,6S,6aR)-6-((2-amino-3-chloroquinolin-7-yl)methyl)-2-(4-amino-5-fluoro-7H-pyrrolo[2,3-d]pyrimidin-7-yl)hexahydro-3aH-cyclopenta[b]furan-3,3a-diol] | 1.1
19 | Cc1nc(N)c2ccn([C@@H]3C[C@@H]4[C@H](Cc5ccc6cc(F)c(N)nc6c5)CC[C@]4(O)[C@H]3O)c2n1 [Example 32, (1S,2R,3aR,4S,6aR)-2-(4-amino-2-methyl-7H-pyrrolo[2,3-d]pyrimidin-7-yl)-4-((2-amino-3-fluoroquinolin-7-yl)methyl) hexahydropentalene-1,6a(1H)-diol 2,2,2-trifluoroacetate] | 0.8

Reference: US12173026B2, “PRMT5 inhibitors” (Merck Sharp & Dohme LLC, priority 2018, dated 2024)
